# According to patent US12398121B2 (Nuvation Bio Inc., priority 2018, dated 2025):
# Like-named read-outs stand apart in the source and are kept apart here.
# Assays:
# AR in LNCaP cytosol = biological target: T1, AR in LNCaP cytosol (Homo sapiens, UniProt P10275, T878A); experiment: AR binding assay (3H-methyltrienolone displacement)
# T1 construct: endogenous in cells; host or cells: LNCaP cytosol
# T1 sequence (P10275 1-920 T878A): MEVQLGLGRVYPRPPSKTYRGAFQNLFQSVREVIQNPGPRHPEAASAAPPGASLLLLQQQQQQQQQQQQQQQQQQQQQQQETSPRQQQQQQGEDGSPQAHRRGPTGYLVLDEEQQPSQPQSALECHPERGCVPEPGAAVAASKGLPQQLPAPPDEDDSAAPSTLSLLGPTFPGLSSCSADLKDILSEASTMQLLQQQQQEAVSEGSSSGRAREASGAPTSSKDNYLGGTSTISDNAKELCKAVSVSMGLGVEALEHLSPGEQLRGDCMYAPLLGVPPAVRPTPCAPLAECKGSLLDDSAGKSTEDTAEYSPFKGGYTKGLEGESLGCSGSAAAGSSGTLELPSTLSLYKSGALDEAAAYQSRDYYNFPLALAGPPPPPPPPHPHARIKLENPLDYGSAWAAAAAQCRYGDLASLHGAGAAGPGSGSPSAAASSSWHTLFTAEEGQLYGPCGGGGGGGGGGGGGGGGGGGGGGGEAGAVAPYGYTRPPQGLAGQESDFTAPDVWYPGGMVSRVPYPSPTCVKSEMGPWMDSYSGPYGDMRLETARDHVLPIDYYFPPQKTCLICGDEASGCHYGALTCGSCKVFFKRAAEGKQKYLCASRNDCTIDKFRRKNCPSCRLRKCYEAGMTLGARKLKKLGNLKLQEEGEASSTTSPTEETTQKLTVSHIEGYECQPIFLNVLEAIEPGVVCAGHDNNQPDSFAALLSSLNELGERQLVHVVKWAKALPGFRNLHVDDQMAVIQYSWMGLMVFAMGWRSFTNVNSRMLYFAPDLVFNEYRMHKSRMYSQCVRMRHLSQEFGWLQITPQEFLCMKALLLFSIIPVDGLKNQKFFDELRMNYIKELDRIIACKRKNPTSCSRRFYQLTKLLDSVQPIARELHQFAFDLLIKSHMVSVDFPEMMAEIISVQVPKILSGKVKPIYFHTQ
# Procedure: (§1) The following methods are for evaluating the in vitro biology properties of the test articles. • a. RBC HotSpot Poly(ADP-ribose) Polymerases 1 (PARP1) and Poly(ADP-ribose) Polymerases 2 (PARP2) Assays: The assay principle is radioisotope-based filter binding assay where incorporation of radioisotope-labeled NAD^+ into the substrate captured on filter is detected after washout free NAD^+. Data were analyzed using Excel and GraphPad Prism software for IC50 curve fits. Each assay was conducted with PJ34 as a positive control. • i. PARP1 assay: Human recombinant PARP1 at a final concentration of 2.5 nM was combined with histone H4 (20 μM) and test articles at various concentrations in reaction buffer (50 mM Tris-HCL, pH 8.0, 50 mM NaCl, 10 mM MgCl2, 1 mM DTT, 1% DMSO, and 20 μg/mL activated DNA). The solution was inoculated for 20 min at room temperature and the reaction initiated by adding [adenylate-^32P]-Nicotinamide Adenine Dinucleotide, ^32P-NAD^+ at a final concentration of 10 μM. After incubation for 2 hour at room temperature, the reaction mixture was filtered and washed with 0.75% phosphoric acid for radioactivity detection. • ii. PARP2 assay: Human recombinant PARP2 at a final concentration of 2.5 nM was combined with histone H3 (20 μM) and test articles at various concentrations in reaction buffer (50 mM Tris-HCL, pH 8.0, 50 mM NaCl, 10 mM MgCl2, 1 mM DTT, 1% DMSO, and 20 μg/mL activated DNA). The solution was inoculated for 20 min at room temperature and the reaction was initiated by adding [adenylate-^32P]-Nicotinamide Adenine Dinucleotide, ^32P-NAD^+ at a final concentration of 10 μM. After incubation for 2 hour at room temperature, the reaction mixture was filtered and washed with 0.75% phosphoric acid for radioactivity detection. • b. AR binding assay: AR in LNCaP cytosol was used for determining the binding affinity of test articles and the reference compound—progesterone (Sigma, Cat: E2785, St. Louis, MO). IC50s were determined using 8 concentrations/compound. Cytosol was plated at 200 μg/well (100 μL) into a 96-well conical polypropylene plate (Agilent, Cat: 5042-1385, Santa Clara, CA) and mixed with 3 μL of test compound. After adding 100 μL of ^3H-methyltrienolone (PerkinElmer, Cat: NET590250UC, San Jose, CA), the plate was sealed and shaken at 300 rpm at 4° C. for 24 hours. Post incubation, 100 μL of radioligand adsorption buffer containing 10 mM Tris-HCl, pH 7.4; 1.5 mM EDTA; 1 mM DTT; 0.25% charcoal; 0.0025% dextran was added to individual well. Plate was shaken for 15 min at 4′C followed by centrifugation at 3000 rpm for 30 min at 4° C. 150 μL of supernatant was transferred into scint-tube (PerkinElmer, Cat: 6000192) and mixed with 2 mL of Ultima Gold Cocktail (PerkinElmer, Cat: 6013329). Radioactivity was counted using a TriCarb 2910 TR scintillation counter (PerkinElmer). Inhibition of the radioactivity by test articles were calculated using the equation below: % Inhibition=(1−(Assay well−Average_LC)/(Average_HC−Average_LC))×100%.
# IC50 values were calculated and graphed using the model “log(inhibitor) vs. response—Variable slope” included in GraphPad Prism 5 (San Diego, CA). The Ki values were further calculated using the equation below where [L] was the radioligand concentration (1 nM) using in this study. Kd value was 0.332 nM. Ki=IC50/(1+[L]/Kd) c. AR transactivation: Human AR cloned into a CMV vector backbone was used for the transactivation study. HEK-293 cells were plated at 80,000 cells per well of a 24 well plate in DME+5% csFBS. Twenty four hours later, the cells were transfected using Lipofectamine (Invitrogen, Carlsbad, CA) with 0.25 μg GRE-LUC, 0.01 μg CMV-LUC (renilla luciferase) and 25 ng of the AR in OPTIMEM medium. The cells were treated 24 hrs after transfection with various ligands (10^−12 to 10^−5 M final concentrations) and luciferase assay were performed 48 hours after transfection. […]
# Human recombinant PARP1 = Human recombinant PARP1 (Homo sapiens, UniProt P09874); experiment: RBC HotSpot PARP1 radioisotope-based filter binding assay; type: biochemical
# Chain of Human recombinant PARP1 (P09874 whole entry): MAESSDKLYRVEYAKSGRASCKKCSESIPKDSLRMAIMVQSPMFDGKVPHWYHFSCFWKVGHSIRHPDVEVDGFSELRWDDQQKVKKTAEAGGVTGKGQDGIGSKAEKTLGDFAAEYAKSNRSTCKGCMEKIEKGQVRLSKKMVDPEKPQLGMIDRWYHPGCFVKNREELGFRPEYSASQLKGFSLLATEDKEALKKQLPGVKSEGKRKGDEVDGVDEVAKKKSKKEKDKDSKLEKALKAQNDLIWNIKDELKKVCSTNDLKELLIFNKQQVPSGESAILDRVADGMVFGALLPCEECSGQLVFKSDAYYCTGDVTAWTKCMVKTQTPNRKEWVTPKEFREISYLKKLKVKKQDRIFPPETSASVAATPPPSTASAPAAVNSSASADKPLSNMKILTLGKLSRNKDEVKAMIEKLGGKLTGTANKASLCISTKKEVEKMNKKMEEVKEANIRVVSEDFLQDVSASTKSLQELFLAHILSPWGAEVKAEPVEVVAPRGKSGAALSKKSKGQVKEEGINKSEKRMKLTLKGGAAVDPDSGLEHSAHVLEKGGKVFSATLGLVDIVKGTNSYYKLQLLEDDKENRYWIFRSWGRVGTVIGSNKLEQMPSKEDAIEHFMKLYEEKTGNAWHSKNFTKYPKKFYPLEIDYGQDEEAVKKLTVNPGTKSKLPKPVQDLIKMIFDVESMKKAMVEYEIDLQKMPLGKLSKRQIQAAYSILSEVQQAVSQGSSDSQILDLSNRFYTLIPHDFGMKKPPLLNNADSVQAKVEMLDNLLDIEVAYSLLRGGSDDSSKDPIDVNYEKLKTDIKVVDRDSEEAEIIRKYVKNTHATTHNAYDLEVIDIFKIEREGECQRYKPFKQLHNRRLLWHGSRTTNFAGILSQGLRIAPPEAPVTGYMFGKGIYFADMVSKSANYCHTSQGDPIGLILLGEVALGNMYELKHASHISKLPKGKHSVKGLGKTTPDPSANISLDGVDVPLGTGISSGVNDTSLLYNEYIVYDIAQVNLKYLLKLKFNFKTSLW
# Procedure: as §1
# [1] = Ki=IC50/(1+[L]/Kd), [L] 1 nM, Kd 0.332 nM, read-out: AR Ki
# [2] = 2.5 nM enzyme, histone H4, 10 μM 32P-NAD+, read-out: PARP1 IC50
Structure (SMILES),Ki (AR in LNCaP cytosol) [nM],IC50 (Human recombinant PARP1) [nM],Ki (AR in LNCaP cytosol; [1]) [nM],IC50 (Human recombinant PARP1; [2]) [nM]
"C[C@](O)(CS(=O)(=O)c1ccc(NCCN2CCN(C(=O)c3cc(Cc4n[nH]c(=O)c5ccccc45)ccc3F)CC2)cc1)C(=O)Nc1ccc(C#N)c(C(F)(F)F)c1 [Compound 1.99, (R)-N-(4-cyano-3-(trifluoromethyl)phenyl)-3-(4-(2-(4-(2-fluoro-5-((4-oxo-3,4-dihydrophthalazin-1-yl)methyl)benzoyl)piperazin-1-yl)ethylamino)phenylsulfonyl)-2-hydroxy-2-methylpropanamide]",197,0.8,,
"C[C@]12CCC(=O)C[C@@H]1CC[C@@H]1[C@@H]2CC[C@]2(C)[C@@H](OCCOCC(=O)N3CCN(C(=O)c4cc(Cc5n[nH]c(=O)c6ccccc56)ccc4F)CC3)CC[C@@H]12 [Compound 1.104, 4-(3-(4-(2-(2-((5S,8R,9S,10S,13S,14S,17S)-10,13-dimethyl-3-oxohexadeca hydro-1H-cyclopenta[a]phenanthren-17-yloxy)ethoxy)acetyl)piperazine-1-carbonyl)-4-fluorobenzyl)phthalazin-1(2H)-one]",,,167,1.2
"C[C@]12CCC(=O)C[C@@H]1CC[C@@H]1[C@@H]2CC[C@@]2(C)[C@H]1CC[C@@]2(O)c1cn(CC(=O)N2CCN(C(=O)c3cc(Cc4n[nH]c(=O)c5ccccc45)ccc3F)CC2)nn1 [Compound 1.107, 4-(4-fluoro-3-(4-(2-(4-((5S,8R,9S,10S,13S,14S,17S)-17-hydroxy-10,13-dimethyl-3-oxohexadecahydro-1H-cyclopenta[a]phenanthren-17-yl)-1H-1,2,3-triazol-1-yl)acetyl)piperazine-1-carbonyl)benzyl)phthalazin-1(2H)-one]",,,> 7470,0.3
"C[C@]12CCC(=O)C[C@@H]1CC[C@@H]1[C@@H]2CC[C@]2(C)[C@@H](OCC(=O)N3CCN(C(=O)c4cc(Cc5n[nH]c(=O)c6ccccc56)ccc4F)CC3)CC[C@@H]12 [Compound 1.110, 4-(3-(4-(2-((5S,8R,9S,10S,13S,14S,17S)-10,13-dimethyl-3-oxohexadecahydro-1H-cyclopenta[a]phenanthren-17-yloxy)acetyl)piperazine-1-carbonyl)-4-fluorobenzyl)phthalazin-1(2H)-one]",60,,,0.7
"C[C@]12CCC(O)C[C@@H]1CC[C@@H]1[C@@H]2CC[C@]2(C)[C@@H](OCCCCCC(=O)N3CCN(C(=O)c4cc(Cc5n[nH]c(=O)c6ccccc56)ccc4F)CC3)CC[C@@H]12 (stereo partly drawn) [Compound 1.111, 4-(4-fluoro-3-(4-(6-((5S,8R,9S,10S,13S,14S,17S)-3-hydroxy-10,13-dimethylhexadecahydro-1H-cyclopenta[a]phenanthren-17-yloxy)hexanoyl)piperazine-1-carbonyl)benzyl)phthalazin-1(2H)-one]",36,,,1.6
"C[C@]12CCC(F)(F)C[C@@H]1CC[C@@H]1[C@@H]2CC[C@]2(C)[C@@H](OCCCCCC(=O)N3CCN(C(=O)c4cc(Cc5n[nH]c(=O)c6ccccc56)ccc4F)CC3)CC[C@@H]12 [Compound 1.114, 4-(3-(4-(6-((5S,8R,9S,10S,13S,14S,17S)-3,3-difluoro-10,13-dimethylhexadecahydro-1H-cyclopenta[a]phenanthren-17-yloxy)hexanoyl)piperazine-1-carbonyl)-4-fluorobenzyl)phthalazin-1(2H)-one]",19,,,27.9
"C[C@]12CCC(=O)C[C@@H]1CC[C@@H]1[C@@H]2CC[C@@]2(C)[C@H]1CC[C@@]2(O)C#CC(=O)N1CCN(C(=O)c2cc(Cc3n[nH]c(=O)c4ccccc34)ccc2F)CC1 [Compound 1.116, 4-(4-fluoro-3-(4-(3-((5S,8R,9S,10S,13S,14S,17S)-17-hydroxy-10,13-dimethyl-3-oxohexadecahydro-1H-cyclopenta[a]phenanthren-17-yl)propioloyl)piperazine-1-carbonyl)benzyl)phthalazin-1(2H)-one]",,,4970,0.5
"C[C@]12CCC(=O)C[C@@H]1CC[C@@H]1[C@@H]2CC[C@@]2(C)[C@H]1CC[C@@]2(O)C#CCN1CCN(C(=O)c2cc(Cc3n[nH]c(=O)c4ccccc34)ccc2F)CC1 [Compound 1.118, 4-(4-fluoro-3-(4-(3-((5S,8R,9S,10S,13S,14S,17S)-17-hydroxy-10,13-dimethyl-3-oxohexadecahydro-1H-cyclopenta[a]phenanthren-17-yl)prop-2-ynyl)piperazine-1-carbonyl)benzyl)phthalazin-1(2H)-one]",,,> 7470,13.6
"C[C@]12CCC(=O)C[C@@H]1CC[C@@H]1[C@@H]2CC[C@@]2(C)[C@H]1CC[C@@]2(O)CCCN1CCN(C(=O)c2cc(Cc3n[nH]c(=O)c4ccccc34)ccc2F)CC1 [Compound 1.119, 4-(4-fluoro-3-(4-(3-((5S,8R,9S,10S,13S,14S,17R)-17-hydroxy-10,13-dimethyl-3-oxohexadecahydro-1H-cyclopenta[a]phenanthren-17-yl)propyl)piperazine-1-carbonyl)benzyl)phthalazin-1(2H)-one]",20,,,1.6
